Reference: patent US6774116B2, “Prodrugs via acylation with cinnamate” (priority 2001, dated 2004)

How the values were obtained:
Format in all cases: in vivo, nude mice
[1] = tested on: Human colon carcinoma cell line LS-180; test: Treatment of human colon carcinoma LS-180 xenograft with A—Z—CINN 551
Procedure: Human colon carcinoma cell line LS-180 is grown in cell culture as described (Kinuya et.al. 2001. J. Nucl. Med. 42:596-600). 1×10^7 cells/mouse are implanted s.c. into nude mice. When the tumors reached 150-200 mm^3 in size, A—Z—CINN 551 is used to treat the tumor as follows; 0.1-1.0 mg of A—Z—CINN 551 (1 mg mAb protein with ˜25 ug paclitaxel covalently attached) is injected i.v. via tail vein into mice with the tumor. After 6 hours, mice that received 0.1, 0.5 or 1.0 mg of A—Z—CINN […] are anesthetized with a Ketamine/Rompun mixture. A 16 G needle is used to create a hole in the skin and a 1 mm fiber optic probe is inserted up to the tumor. The tumor is exposed to white light for 5 minutes with a power of about 0.5 mW/cm^2. […] All mice are kept under “red lights” to prevent unnecessary light exposure and activation of A—Z—CINN 551 for 72 hours post injection, then returned to normal light/dark cycle.

[2] = tested on: Human lung carcinoma cell line H2987; test: Treatment of human lung carcinoma H2987 xenograft with A—Z—CINN 441
Procedure: MAb BR110 is a murine mAb to a 66-kDa glycoprotein that is found on the cell surface of human lung, colon and breast tumor cells. Human lung carcinoma cell line H2987 is grown in cell culture as described (U.S. Pat. No. 5,840,854). 1×10^7 cells/mouse are implanted s.c. into a nude mice. When the tumors reached 150-200 mm^3 in size, A—Z—CINN 441 is used to treat the tumor as follows: 0.1-1.0 mg of A—Z—CINN 441 (1 mg mAb protein with ˜25 ug paclitaxel covalently attached) is injected i.v. via tail vein into mice with the tumor. After 6 hours, mice that receive 0.1, 0.5 or 1.0 mg of A—Z—CINN 441 are anesthetized with a Ketamine/Rompun mixture. A 16G needle is used to create a hole in the skin and a 1 mm fiber optic probe is inserted up to the tumor. The tumor is exposed to white light for 5 minutes with a power of about 0.5 mW/cm^2. […] All mice are kept under “red lights” to prevent light activation of the drug, for 72 hours post injection, then returned to normal light/dark cycle. […] Groups that receive antibody and free drug (unlinked) show tumor growth, and by 28 days the mice either die or have tumors>800 mm^3.

[3] = tested on: Human breast cancer xenographs; test: Treatment of human breast carcinoma xenographs with A—Z—CINN 361
Procedure: Human breast cancer xenographs are prepared as described (Burak et.al. 1998. Nucl. Med. Biol. 25:633-637) Xenographs are implanted s.c. into a nude mice. When the tumor reached 150-200 mm^3 in size, A—Z—CINN 361 is used to treat the tumor as follows; 0.1-1.0 mg of A—Z—CINN 361 (1 mg mAb protein with ˜25 ug paclitaxel covalently attached) is injected i.v. via tail vein into mice with the tumor. After 6 hours, mice that receive 0.1, 0.5 or 1.0 mg of A—Z—CINN 361 are anesthetized with a Ketamine/Rompun mixture. A 16G needle is used to create a hole in the skin and a 1 mm fiber optic probe is inserted up to the tumor. The tumor is exposed to white light for 5 minutes with a power of about 0.5 mW/cm^2. […] All mice are kept under “red lights” to prevent unnecessary light exposure and activation of A—Z—CINN 361 for 72 hours post injection, then returned to normal light/dark cycle.

[4] = in 7 days, light treatment 6 hours after i.v. injection, 0.1, 0.5 or 1.0 mg

Substance: A7-mAb-S-Mal-PEG3400-N—CINN-paclitaxel [A—Z—CINN 551]
- tumor shrinkage [1, 4]: > 50%
- tumor size by 28 days ([1]; light treatment): less than 50 mm^3
- tumor size at 28 days ([1]; no light stimulation): smaller than 100 mm^3

Substance: BR110-mAb-S-Mal-PEG3400-N—CINN-paclitaxel [A—Z—CINN 441]
- tumor shrinkage [2, 4]: > 50%
- tumors by 28 days ([2]; light treatment): not detectable
- tumor size at 28 days ([2]; no light stimulation): smaller than 50 mm

Substance: NR-LU-10 mAb-S-Mal-PEG3400-N—CINN-paclitaxel [A—Z—CINN 361]
- tumor shrinkage [3, 4]: > 50%
- tumor size by 28 days ([3]; light treatment): less than 50 mm^3
- tumor size at 28 days ([3]; no light stimulation): smaller than 100 mm^3
